Laboratory results reported in patent US10670605B2, “Cysteine reactive probes and uses thereof” (The Scripps Research Institute, priority 2015, dated 2020).
Values belong to the compound of their own block, whether it stands above or below them.

Experiments:
Test in all cases: Competitive isoTOP-ABPP, cell lysates
Format in all cases: binding
MGMT C150 (P16455) = target: T1, MGMT C150 (P16455) (Homo sapiens, UniProt P16455); conditions: for isoTOP-ABPP reactivity ratio, P16455_C150: 500 μm, in-vitro_ramos
T1 sequence (P16455 1-207): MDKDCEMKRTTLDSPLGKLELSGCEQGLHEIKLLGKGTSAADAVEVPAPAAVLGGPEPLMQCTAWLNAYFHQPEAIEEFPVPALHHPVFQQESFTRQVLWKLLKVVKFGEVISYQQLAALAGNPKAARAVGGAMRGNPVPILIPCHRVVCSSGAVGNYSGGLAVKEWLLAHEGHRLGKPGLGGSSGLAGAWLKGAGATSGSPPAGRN

SAMHD1 C522 (Q9Y3Z3) = SAMHD1 C522 (Q9Y3Z3) (Homo sapiens, UniProt Q9Y3Z3)
PRMT1 C109 (Q99873) = PRMT1 C109 (Q99873) (Homo sapiens, UniProt Q99873); conditions: for isoTOP-ABPP reactivity ratio, Q99873_C109: 500 μm; for isoTOP-ABPP ratio, Q99873_C109: 500 μM, invitro
GNB2L1 C182 (P63244) = GNB2L1 C182 (P63244) (Homo sapiens, UniProt P63244); conditions: for isoTOP-ABPP reactivity ratio, P63244_C182: 500 μm; for isoTOP-ABPP ratio, P63244_C182: 500 μM, invitro
STAT3 C259 (P40763) = STAT3 C259 (P40763) (Homo sapiens, UniProt P40763)
DCUN1D1 C115 (Q96GG9) = DCUN1D1 C115 (Q96GG9) (Homo sapiens, UniProt Q96GG9); conditions: for isoTOP-ABPP reactivity ratio, Q96GG9_C115: 500 μm, in-vitro_ramos
UCHL3 C95 (P15374) = target: T2, UCHL3 C95 (P15374) (Homo sapiens, UniProt P15374); conditions: for isoTOP-ABPP reactivity ratio, P15374_C95: 500 μm
T2 sequence (P15374 1-230): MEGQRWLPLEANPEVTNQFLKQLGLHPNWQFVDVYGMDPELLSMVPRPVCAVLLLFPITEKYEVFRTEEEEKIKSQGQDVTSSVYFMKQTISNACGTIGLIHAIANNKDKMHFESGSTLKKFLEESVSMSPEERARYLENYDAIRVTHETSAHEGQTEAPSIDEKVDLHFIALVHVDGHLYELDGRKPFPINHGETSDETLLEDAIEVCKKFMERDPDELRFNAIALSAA

UBE2L3 C86 (P68036) = UBE2L3 C86 (P68036) (Homo sapiens, UniProt P68036); conditions: for isoTOP-ABPP reactivity ratio, P68036_C86: 500 μm; for isoTOP-ABPP ratio, P68036_C86: 500 μM, invitro
PCK2 C306 (Q16822) = target: T3, PCK2 C306 (Q16822) (Homo sapiens, UniProt Q16822); conditions: for isoTOP-ABPP reactivity ratio, Q16822_C306: 500 μm; for isoTOP-ABPP ratio, Q16822_C306: 500 μM, invitro
T3 sequence (Q16822 33-640): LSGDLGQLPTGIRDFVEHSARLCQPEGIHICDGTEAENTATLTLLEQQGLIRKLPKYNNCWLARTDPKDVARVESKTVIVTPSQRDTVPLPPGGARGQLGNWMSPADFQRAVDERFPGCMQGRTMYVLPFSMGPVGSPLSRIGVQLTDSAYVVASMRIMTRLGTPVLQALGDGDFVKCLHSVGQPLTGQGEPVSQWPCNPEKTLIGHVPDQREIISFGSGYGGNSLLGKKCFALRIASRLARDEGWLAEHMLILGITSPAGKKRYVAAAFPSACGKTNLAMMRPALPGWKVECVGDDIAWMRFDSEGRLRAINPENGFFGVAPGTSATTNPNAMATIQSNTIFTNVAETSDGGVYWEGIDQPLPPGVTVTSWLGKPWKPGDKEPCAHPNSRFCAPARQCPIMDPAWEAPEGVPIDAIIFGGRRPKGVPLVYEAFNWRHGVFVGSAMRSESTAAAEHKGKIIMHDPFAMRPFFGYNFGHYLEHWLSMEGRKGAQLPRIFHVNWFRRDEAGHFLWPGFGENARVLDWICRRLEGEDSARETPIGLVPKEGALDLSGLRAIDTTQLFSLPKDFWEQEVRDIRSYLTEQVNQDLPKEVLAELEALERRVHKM

ZNF217 C286 (O75362) = ZNF217 C286 (O75362) (Homo sapiens, UniProt O75362); conditions: for isoTOP-ABPP ratio O75362_C286: 500 μM, invitro

- isoTOP-ABPP reactivity ratio, P16455_C150 (MGMT C150 (P16455)): 2.8
- isoTOP-ABPP reactivity ratio, Q9Y3Z3_C522 (SAMHD1 C522 (Q9Y3Z3); 500 μm, in-vitro_ramos_231): 1.5
- isoTOP-ABPP reactivity ratio, Q99873_C109 (PRMT1 C109 (Q99873); in-vitro_ramos): 1.3
- isoTOP-ABPP reactivity ratio, Q99873_C109 (PRMT1 C109 (Q99873); in-vitro_ramos_231): 1.0
- isoTOP-ABPP reactivity ratio, P63244_C182 (GNB2L1 C182 (P63244); in-vitro_ramos_231): 1.3
- isoTOP-ABPP reactivity ratio, P40763_C259 (STAT3 C259 (P40763); 500 μm, in-vitro_ramos_231): 1.7
- isoTOP-ABPP reactivity ratio, Q96GG9_C115 (DCUN1D1 C115 (Q96GG9)): 0.9
- isoTOP-ABPP reactivity ratio, P15374_C95 (UCHL3 C95 (P15374); in-vitro_ramos): 0.7
- isoTOP-ABPP reactivity ratio, P15374_C95 (UCHL3 C95 (P15374); in-vitro_ramos_231): 0.9
- isoTOP-ABPP reactivity ratio, P68036_C86 (UBE2L3 C86 (P68036); in-vitro_ramos): 1.3
- isoTOP-ABPP reactivity ratio, P68036_C86 (UBE2L3 C86 (P68036); in-vitro_ramos_231): 1.7
- isoTOP-ABPP reactivity ratio, Q16822_C306 (PCK2 C306 (Q16822); in-vitro_ramos): 1.2
- isoTOP-ABPP reactivity ratio, Q16822_C306 (PCK2 C306 (Q16822); in-vitro_ramos_231): 1.9
SMILES: C=CC(=O)N(Cc1cccnc1)c1cc(C(F)(F)F)cc(C(F)(F)F)c1 [compound 31]

- isoTOP-ABPP reactivity ratio, O75362_C286 (ZNF217 C286 (O75362); 500 μm, in-vitro_ramos): 2.1
- isoTOP-ABPP reactivity ratio, P16455_C150 (MGMT C150 (P16455)): 5.1
- isoTOP-ABPP ratio (reactivity profile), Q9Y3Z3_C522 (SAMHD1 C522 (Q9Y3Z3); 500 μm in-vitro ramos): 0.7
- isoTOP-ABPP ratio (reactivity profile), Q99873_C109 (PRMT1 C109 (Q99873); 500 μm in-vitro ramos): 1.1
- isoTOP-ABPP reactivity ratio, Q99873_C109 (PRMT1 C109 (Q99873); in-vitro_ramos): 1.8
- isoTOP-ABPP ratio (reactivity profile), P63244_C182 (GNB2L1 C182 (P63244); 500 μm in-vitro ramos): 1.2
- isoTOP-ABPP reactivity ratio, P63244_C182 (GNB2L1 C182 (P63244); in-vitro_ramos): 1.6
- isoTOP-ABPP ratio (reactivity profile), Q96GG9_C115 (DCUN1D1 C115 (Q96GG9); 500 μm in-vitro ramos): 0.7
- isoTOP-ABPP reactivity ratio, Q96GG9_C115 (DCUN1D1 C115 (Q96GG9)): 1.1
- isoTOP-ABPP ratio (reactivity profile), P15374_C95 (UCHL3 C95 (P15374); 500 μm in-vitro ramos): 0.7
- isoTOP-ABPP reactivity ratio, P15374_C95 (UCHL3 C95 (P15374); in-vitro_ramos): 1.0
- isoTOP-ABPP reactivity ratio, P68036_C86 (UBE2L3 C86 (P68036); in-vitro_ramos): 1.5
- isoTOP-ABPP ratio (reactivity profile), Q16822_C306 (PCK2 C306 (Q16822); 500 μm in-vitro ramos): 1.2
- isoTOP-ABPP reactivity ratio, Q16822_C306 (PCK2 C306 (Q16822); in-vitro_ramos): 1.1
SMILES: CCN(CC)c1ccc(S(N)(=O)=O)cc1NC(=O)CCl [compound 30]

- isoTOP-ABPP ratio O75362_C286 (ZNF217 C286 (O75362); 231): 0.9
- isoTOP-ABPP ratio O75362_C286 (ZNF217 C286 (O75362); ramos): 0.9
- isoTOP-ABPP ratio, P16455_C150 (MGMT C150 (P16455); 500 μM, invitro, ramos): 4.2
- isoTOP-ABPP ratio, Q9Y3Z3_C522 (SAMHD1 C522 (Q9Y3Z3); 500 μM, invitro, 231): 0.8
- isoTOP-ABPP ratio, Q99873_C109 (PRMT1 C109 (Q99873); 231): 1.0
- isoTOP-ABPP ratio, Q99873_C109 (PRMT1 C109 (Q99873); ramos): 0.9
- isoTOP-ABPP ratio, P63244_C182 (GNB2L1 C182 (P63244); 231): 1.4
- isoTOP-ABPP ratio, P63244_C182 (GNB2L1 C182 (P63244); ramos): 0.8
- isoTOP-ABPP ratio, P40763_C259 (STAT3 C259 (P40763); 500 μM, invitro, ramos): 1.2
- isoTOP-ABPP ratio, P15374_C95 (UCHL3 C95 (P15374); 500 μM, invitro, ramos): 0.8
- isoTOP-ABPP ratio, P68036_C86 (UBE2L3 C86 (P68036); 231): 1.1
- isoTOP-ABPP ratio, P68036_C86 (UBE2L3 C86 (P68036); ramos): 0.8
- isoTOP-ABPP ratio, Q16822_C306 (PCK2 C306 (Q16822); 231): 0.9
- isoTOP-ABPP ratio, Q16822_C306 (PCK2 C306 (Q16822); ramos): 1.0
SMILES: O=C(CCl)NCCc1c[nH]c2ccccc12 [compound 13]
